Laboratory results taken from patent US7622469B2, “2,4-diamino-1,3,5-triazine derivatives” (Hamari Chemicals, Ltd., priority 2002, dated 2009).
Converted amounts (≈) assume the structure as drawn.

Columns and labels:
[1] = system: E. coli NIHJ JC-2; assay: Bactericidal activity test (MBC, phenol coefficient measuring method); type: cell-based
Experimental: (§1) As a test bacterium, the same bacteria species as those of the antibacterial activity test were used; as a medium to be used, a SCD medium (manufactured by Eiken Chemical Co., Ltd.) was used for pre-culture medium; and a heart infusion bouillon medium (manufactured by Eiken Chemical Co., Ltd.) was used as a medium for growing a live bacterium in a test solution after bactericidal treatment. One platinum loop of a test bacterium was inoculated into 20 ml of a medium, and static culture was carried out at 37° C. for 18 to 20 hours, and the cells were adjusted with a sterilized physiological saline to 1×10^7/ml, which was used as a test bacterium solution.
(§2) Then, a solution of each compound in methanol was subjected to ½ stepwise dilution with sterilized water, each 5 ml was dispensed into a test tube, 0.5 ml of the previously prepared test bacterium solution was added thereto, and the mixture was blended well. After 1 minute, 3 minutes and 5 minutes has passed, 5 μl of the test solution was collected and inoculated into 2 ml of a heart infusion bouillon medium, this was cultured at 37° C. for 40 to 48 hours, and the presence or absence of growth of a bacterium was determined. A test was performed three times, a minimum concentration at which growth of a bacterium was not recognized two or more times was adopted as a minimal bactericidal concentration (MBC value).
(§3) Numerical values in Tables represent MBC expressed in μg/ml unit.

[2] = system: P. aeruginosa PAO-1; assay: as above; type: cell-based
Experimental: as §1, §2, §3

[3] = system: S. aureus 209PJC; assay: as above; type: cell-based
Experimental: as §1, §2, §3

[4] = system: E. coli NIHJ JC-2; assay: Antibacterial activity test (MIC); type: cell-based; conditions: Mueller-Hinton Broth, 37° C., 20 to 24 hours
Experimental: (§4) Regarding compounds obtained in respective Working Examples, in order to investigate antibacterial activity, minimal inhibitory concentration (MIC) was determined according to a standard method of Japanese Society of Chemotherapy.
(§5) As a test bacterium, nine kinds of S. aureus 209PJC, MRSA 97-115, MRSA KM 97-53, MRSA KM97-108, VRE 49, E. coli NIHJ JC-2, P. aeruginosa PAO-1, P. aeruginosa No. 12, P. aeruginosa KM97-5 were used and, as a medium, Mueller-Hinton Broth (DIFCO) was used. One platinum loop of a test bacterium was inoculated into 20 ml of a medium, and static culture was carried out at 37° C. for 16 to 20 hours, and then each bacterium species was diluted with a sterilized physiological saline to 10^5/ml, which was used as a test bacterium solution.
(§6) Then, each compound was dissolved in methanol, subjected to ½ stepwise dilution with a medium to prepare a medium for measuring sensitivity, and each 2 ml was dispensed into a test tube. A compound concentration in a medium was adjusted to 100 μg/ml and its 2^n-fold (n=−10 to 1).
(§7) Numerical values in Tables represent MIC expressed in μg/ml unit.

[5] = system: P. aeruginosa PAO-1; assay: Antibacterial activity test (MIC); type: cell-based; conditions: Mueller-Hinton Broth, 37° C., 20 to 24 hours
Experimental: as §4, §5, §6, §7

[6] = system: S. aureus 209PJC; assay: Antibacterial activity test (MIC); type: cell-based; conditions: Mueller-Hinton Broth, 37° C., 20 to 24 hours
Experimental: as §4, §5, §6, §7

[7] = system: MRSA 97-115; assay: Antibacterial activity test (MIC); type: cell-based, methicillin-resistant Staphylococcus aureus; conditions: Mueller-Hinton Broth, 37° C., 20 to 24 hours
Experimental: as §4, §5, §6, §7

[8] = system: MRSA 97-115; assay: Bactericidal activity test (MBC, phenol coefficient measuring method); type: cell-based, methicillin-resistant Staphylococcus aureus
Experimental: as §1, §2, §3

| SMILES | minimal bactericidal concentration (MBC) ([1]; 1 min) | minimal bactericidal concentration (MBC) ([1]; 3 min) | minimal bactericidal concentration (MBC) ([1]; 5 min) | minimal bactericidal concentration (MBC) ([2]; 1 min) | minimal bactericidal concentration (MBC) ([2]; 3 min) | minimal bactericidal concentration (MBC) ([2]; 5 min) | minimal bactericidal concentration (MBC) ([3]; 1 min) | minimal bactericidal concentration (MBC) ([3]; 3 min) | minimal bactericidal concentration (MBC) ([3]; 5 min) | minimal inhibitory concentration (MIC) [4] | minimal inhibitory concentration (MIC) [5] | minimal inhibitory concentration (MIC) [6] | minimal inhibitory concentration (MIC) [7] | minimal bactericidal concentration (MBC) ([8]; 1 min) | minimal bactericidal concentration (MBC) ([8]; 3 min) | minimal bactericidal concentration (MBC) ([8]; 5 min) |
| --- | --- | --- | --- | --- | --- | --- | --- | --- | --- | --- | --- | --- | --- | --- | --- | --- |
| CCCCCCCCCCCCC1N=C(N)NC(NCCc2ccc(OC)cc2)=N1.Cl (racemic) [15(1)] | 6.3 µg/mL | 3.1 µg/mL | 1.6 µg/mL | 6.3 µg/mL | 3.1 µg/mL | 3.1 µg/mL | 12.5 µg/mL | 3.1 µg/mL | 3.1 µg/mL | 25 µg/mL | 50 µg/mL | 0.4 µg/mL | 1.6 µg/mL | 25 µg/mL | 12.5 µg/mL | 6.3 µg/mL |
| CCCCCCCCCCCC1N=C(N)NC(NCc2ccccc2)=N1.Cl (racemic) [43(1)] | 12.5 µg/mL | 6.3 µg/mL | 3.1 µg/mL | 3.1 µg/mL | 3.1 µg/mL | 3.1 µg/mL | 25 µg/mL | 6.3 µg/mL | 6.3 µg/mL | 6.3 µg/mL | 25 µg/mL | 0.4 µg/mL | 0.8 µg/mL | 50 µg/mL | 25 µg/mL | 12.5 µg/mL |
| CCCCCCCCCCNC1=NC(C)(C)N=C(NCc2ccccc2)N1.CS(=O)(=O)O [compound 2] | 6.3 µg/mL | 3.1 µg/mL | 3.1 µg/mL | 3.1 µg/mL | 1.6 µg/mL | 1.6 µg/mL | 12.5 µg/mL | 6.3 µg/mL | 3.1 µg/mL |  |  | 0.4 µg/mL | 0.8 µg/mL | 25 µg/mL | 12.5 µg/mL | 6.3 µg/mL |
| CCCCCCCCNC1=NC(C)(C)N=C(NCCCCCC)N1.O=C(O)C(O)C(O)C(O)C(O)CO [compound 76] |  |  |  |  |  |  |  |  |  | 25 µg/mL | 50 µg/mL | 0.8 µg/mL | 1.6 µg/mL |  |  |  |
| CC(=O)O.CCCCCCCCCCCCNC1=NC(C)(C)N=C(NCc2ccco2)N1 [compound 79] |  |  |  |  |  |  |  |  |  | 50 µg/mL | 100 µg/mL | 0.8 µg/mL | 1.6 µg/mL |  |  |  |
| CCCCCCCCCCCCNC1=NC(C)(C)N=C(NCc2ccc(S(N)(=O)=O)cc2)N1 [compound 80] |  |  |  |  |  |  |  |  |  | >100 µg/mL | >100 µg/mL | 0.4 µg/mL (≈ 0.836 µM) | 1.6 µg/mL (≈ 3.34 µM) |  |  |  |
| CCCCCCCCNC1=NC(C)(C)N(c2cnc3ccccc3c2)C(N)=N1.Cl.Cl [compound 81] |  |  |  |  |  |  |  |  |  | 12.5 µg/mL | 50 µg/mL | 0.8 µg/mL | 1.6 µg/mL |  |  |  |
